The numbers were not newly measured in publication PMC9516332 (Frontiers in Oncology, 2022), which cites them from elsewhere.

Where two headings read alike, the source gives them in different places.

Data set [1] deals with panel of 255 wild-type kinases (Homo sapiens, UniProt P04626). The following applies: kinase HER2, 1 µmol/L single concentration, cited from earlier work.
Data set [2] has as its target panel of 255 wild-type kinases (Homo sapiens, UniProt P35916). The following applies: kinase FLT4, 1 µmol/L single concentration, cited from earlier work.
Data set [3] concerns the target T1, panel of 255 wild-type kinases (Homo sapiens, UniProt Q8TD19).
T1 sequence (Q8TD19 1-979): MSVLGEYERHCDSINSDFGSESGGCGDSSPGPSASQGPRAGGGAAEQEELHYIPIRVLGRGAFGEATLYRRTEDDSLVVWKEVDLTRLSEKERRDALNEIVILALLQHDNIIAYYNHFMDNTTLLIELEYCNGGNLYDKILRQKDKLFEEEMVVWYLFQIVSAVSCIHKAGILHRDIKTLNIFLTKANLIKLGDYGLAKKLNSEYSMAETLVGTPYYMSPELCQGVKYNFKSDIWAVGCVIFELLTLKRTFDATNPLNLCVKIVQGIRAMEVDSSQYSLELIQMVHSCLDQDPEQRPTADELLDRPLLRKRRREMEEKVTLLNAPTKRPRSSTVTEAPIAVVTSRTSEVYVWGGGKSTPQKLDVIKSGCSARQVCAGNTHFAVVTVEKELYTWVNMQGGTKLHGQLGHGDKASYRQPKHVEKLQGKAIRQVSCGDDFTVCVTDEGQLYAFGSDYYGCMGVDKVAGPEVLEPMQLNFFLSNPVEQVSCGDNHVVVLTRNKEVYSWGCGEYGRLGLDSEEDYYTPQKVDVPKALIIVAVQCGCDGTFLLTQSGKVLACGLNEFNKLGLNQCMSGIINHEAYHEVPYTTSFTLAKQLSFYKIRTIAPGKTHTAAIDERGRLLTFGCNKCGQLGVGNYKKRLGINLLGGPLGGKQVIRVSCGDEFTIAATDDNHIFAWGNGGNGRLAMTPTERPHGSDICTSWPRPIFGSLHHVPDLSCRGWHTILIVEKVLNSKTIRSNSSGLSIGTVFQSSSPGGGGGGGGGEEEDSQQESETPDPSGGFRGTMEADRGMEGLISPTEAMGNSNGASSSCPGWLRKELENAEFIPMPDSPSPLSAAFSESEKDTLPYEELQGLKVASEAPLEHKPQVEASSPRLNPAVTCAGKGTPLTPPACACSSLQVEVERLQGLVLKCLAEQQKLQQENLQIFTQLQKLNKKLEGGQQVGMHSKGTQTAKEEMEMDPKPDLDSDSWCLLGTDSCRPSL
The settings on record: NEK9, 1 µmol/L single concentration, cited from earlier work.

The target of data set [4] is panel of 255 wild-type kinases (Homo sapiens, UniProt P11802). The settings on record: CDK4/CycD3 kinase assay, 1 µmol/L single concentration, cited from earlier work.
The target of data set [5] is panel of 255 wild-type kinases (Homo sapiens, UniProt P51957). The following applies: NEK4, 1 µmol/L single concentration, cited from earlier work.
Data set [6] concerns the target panel of 255 wild-type kinases (Homo sapiens, UniProt Q16620). The settings on record: kinase TRKB, 1 µmol/L single concentration, cited from earlier work.
Data set [7] deals with T2, panel of 255 wild-type kinases (Homo sapiens, UniProt Q96L34).
T2 sequence (Q96L34 1-752): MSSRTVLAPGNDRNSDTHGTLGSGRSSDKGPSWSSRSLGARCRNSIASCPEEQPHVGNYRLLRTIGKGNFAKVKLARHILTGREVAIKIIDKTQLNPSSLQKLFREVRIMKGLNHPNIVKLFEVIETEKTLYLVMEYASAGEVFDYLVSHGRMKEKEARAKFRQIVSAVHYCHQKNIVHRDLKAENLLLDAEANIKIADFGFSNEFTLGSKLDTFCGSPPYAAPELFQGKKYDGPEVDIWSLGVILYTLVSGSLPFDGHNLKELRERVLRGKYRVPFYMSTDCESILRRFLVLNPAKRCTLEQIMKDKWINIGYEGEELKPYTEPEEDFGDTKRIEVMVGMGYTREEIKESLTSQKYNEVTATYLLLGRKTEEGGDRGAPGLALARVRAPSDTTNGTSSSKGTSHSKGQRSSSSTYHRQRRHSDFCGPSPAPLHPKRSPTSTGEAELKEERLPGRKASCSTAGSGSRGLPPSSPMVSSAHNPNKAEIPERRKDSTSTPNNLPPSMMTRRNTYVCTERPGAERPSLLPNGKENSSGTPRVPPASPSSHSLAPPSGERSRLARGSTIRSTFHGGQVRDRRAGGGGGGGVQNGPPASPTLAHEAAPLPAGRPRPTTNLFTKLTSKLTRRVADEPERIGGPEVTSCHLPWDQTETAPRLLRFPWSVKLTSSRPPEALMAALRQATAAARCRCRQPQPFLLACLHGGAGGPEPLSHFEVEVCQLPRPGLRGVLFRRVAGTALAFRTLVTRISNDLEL
The settings on record: MARK4, 1 µmol/L single concentration, cited from earlier work.

Data set [8] addresses T3, panel of 255 wild-type kinases (Homo sapiens, UniProt P15735).
T3 sequence (P15735 1-406): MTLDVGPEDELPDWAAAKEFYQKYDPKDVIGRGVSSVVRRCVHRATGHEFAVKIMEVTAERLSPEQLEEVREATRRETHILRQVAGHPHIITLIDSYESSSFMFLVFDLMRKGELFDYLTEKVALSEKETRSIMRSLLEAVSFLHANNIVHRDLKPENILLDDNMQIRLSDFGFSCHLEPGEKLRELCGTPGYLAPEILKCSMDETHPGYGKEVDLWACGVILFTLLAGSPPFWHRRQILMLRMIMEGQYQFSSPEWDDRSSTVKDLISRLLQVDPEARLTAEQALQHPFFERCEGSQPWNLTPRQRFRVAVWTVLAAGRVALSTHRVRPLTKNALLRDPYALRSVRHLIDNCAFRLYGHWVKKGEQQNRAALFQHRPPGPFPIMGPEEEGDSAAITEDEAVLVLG
The following applies: kinase PHKG2, 1 µmol/L single concentration, cited from earlier work.

Setting [9] is: ref DOI: 10.1158/1535-7163.MCT-18-0877.
Setting [10] is: ref DOI: 10.1371/journal.pone.0092146.

Take `C=CC(=O)Nc1cc(Nc2nccc(-c3cn(C)c4ccccc34)n2)c(OC)cc1N(C)CCN(C)C` [osimertinib]: the “%-inhibition at 1 µmol/L, HER2” value in data set [1] (setting [9]) was 100%. Besides, the “%-inhibition at 1 µmol/L, FLT4” value in data set [2] (setting [9]) is reported as 40%. For the same molecule, the “%-inhibition, NEK9” value in data set [3] (setting [9]) is reported as 9%. For the same molecule, the “%-inhibition CDK4/CycD3” value in data set [4] (setting [9]) is recorded as 2.42%. Further, the “%-inhibition, NEK4” value in data set [5] (setting [9]) was 6%. Moreover, the “%-inhibition at 1 µmol/L, TRKB” value in data set [6] (setting [9]) is given as -0.7%. Moreover, the “%-inhibition, MARK4” value in data set [7] (setting [9]) is given as -13%. Also, the “%-inhibition at 1 µmol/L, PHKG2” value in data set [8] (setting [9]) is recorded as 11%.

Consider `CC(=O)Nc1cccc(-n2c(=O)n(C3CC3)c(=O)c3c(Nc4ccc(I)cc4F)n(C)c(=O)c(C)c32)c1` [trametinib], for which the “%-inhibition at 1 µmol/L, HER2” value in data set [1] (setting [10]) is on record as -5.36%. Besides, the “%-inhibition at 1 µmol/L, FLT4” value in data set [2] (setting [10]) is 1.51%. The “%-inhibition, NEK9” value in data set [3] (setting [10]) was -3%. Further, the “%-inhibition CDK4/CycD3” value in data set [4] (setting [10]) is listed as 5.62%. For the same molecule, the “%-inhibition, NEK4” value in data set [5] (setting [10]) is 2%. Further, the “%-inhibition at 1 µmol/L, TRKB” value in data set [6] (setting [10]) is on record as -3.4%. Moreover, the “%-inhibition, MARK4” value in data set [7] (setting [10]) is -15%. In addition, in data set [8] (setting [10]), the “%-inhibition at 1 µmol/L, PHKG2” value is 2.81%.

With `CCCS(=O)(=O)Nc1ccc(F)c(C(=O)c2c[nH]c3ncc(-c4ccc(Cl)cc4)cc23)c1F` [vemurafenib], the “%-inhibition at 1 µmol/L, HER2” value in data set [1] (setting [10]) was 2%. The “%-inhibition at 1 µmol/L, FLT4” value in data set [2] (setting [10]) is 24%. For the same molecule, the “%-inhibition, NEK9” value in data set [3] (setting [10]) is -2.2%. Further, the “%-inhibition CDK4/CycD3” value in data set [4] (setting [10]) is listed as -3.26%. In data set [5] (setting [10]), the “%-inhibition, NEK4” value was -0.416%. Further, in data set [6] (setting [10]), the “%-inhibition at 1 µmol/L, TRKB” value is reported as 11%. The “%-inhibition, MARK4” value in data set [7] (setting [10]) is recorded as 3.78%. Moreover, the “%-inhibition at 1 µmol/L, PHKG2” value in data set [8] (setting [10]) is -4.37%.
